Reference: patent US6329399A, “Antifungal amine derivatives and processing for producing the same” (Pola Chemical Industries, Inc., priority 1997, dated 2001)
Converted amounts (≈) assume the structure as drawn.

Experiments:
Assay in all cases: Measurement of antimycotic activity (minimum inhibitory concentration, MIC) against dermatophyte
Assay type in all cases: cell-based
[1] = tested on: T. mentagrophytes IF05811; details: Trichophyton mentagrophytes, 168 h, Sabouraud's agar pH=5.9, 27° C., 1 week
Description: (§1) The antimycotic activity of the compounds of the invention against dermatophyte was examined.
(§2) More particularly, the test dermatophyte strains shown in Tables 9 and 10 below were cultivated in advance on a slant culture of Sabouraud's agar medium (manufactured by Nissui Seiyaku Co., Ltd.; 1.0% peptone, 4.0% glucose, 1.5% agar, pH=5.9) at 27° C. for 2 weeks to allow them to grow conidia sufficiently. Then, sterilized physiological saline containing 0.05 weight/volume % of Tween 80 was added to the culture and while rubbing the surface of the culture with a platinum loop, the conidia were separated and caused to float. Using a hemocytometer, the filtrate was adjusted with sterilized physiological saline such that the concentration of conidia was 10^6 cells/ml, which was used as a test microbe liquid.
(§3) On the other hand, PR compounds and AD compounds (test drugs) of the present invention obtained in the examples described above were taken each in an amount of 10 mg, and 1 ml of dimethyl sulfoxide was added thereto to form a stock solution, of which 500 μl was taken and 500 μl of dimethyl sulfoxide was added thereto to prepare a 2-fold dilution. The same operation was repeated to prepare 13-stages ranging from 10 to 0.0025 mg/ml (final concentration of test system 100 to 0.025 μg/ml) of diluted drug solutions. Solutions with various diluted concentrations of test drug were each dispensed in sterilized petri dish with an amount of 100 μl. Then, 10 ml of sterile-dissolved Sabouraud's agar medium (1.0% peptone, 4.0% glucose, 1.5% agar, pH=5.9) was added, well mixed and solidified. Then, 5 μl of the test microbe solution previously adjusted were added using a microplanter, respectively.
(§4) The results are shown in Table 9 for PR compounds and in Table 10 for AD compounds, respectively. In the column of Compound No. in Tables 9 and 10, "PR-" or "AD-" were omitted.

T. violaceum TIMM1264 = details: Trichophyton violaceum, 168 h, Sabouraud's agar pH=5.9, 27° C., 1 week
Description: as §1, §2, §3, §4

[2] = tested on: T. mentagrophytes TIMM1189; details: Trichophyton mentagrophytes, 168 h, Sabouraud's agar pH=5.9, 27° C., 1 week
Description: as §1, §2, §3, §4

[3] = tested on: T. mentagrophytes TIMM1177; details: Trichophyton mentagrophytes, 168 h, Sabouraud's agar pH=5.9, 27° C., 1 week
Description: as §1, §2, §3, §4

M. gypseum IF08231 = details: Nannizzia gypsea, 168 h, Sabouraud's agar pH=5.9, 27° C., 1 week
Description: as §1, §2, §3, §4

T. rubrum IF05808 = details: Trichophyton rubrum, 168 h, Sabouraud's agar pH=5.9, 27° C., 1 week
Description: as §1, §2, §3, §4

M. canis TIMM0760 = details: Microsporum canis, 168 h, Sabouraud's agar pH=5.9, 27° C., 1 week
Description: as §1, §2, §3, §4

[4] = tested on: T. mentagrophytes IF07552; details: Trichophyton mentagrophytes, 168 h, Sabouraud's agar pH=5.9, 27° C., 1 week
Description: as §1, §2, §3, §4

T. rubrum IF09185 = details: Trichophyton rubrum, 168 h, Sabouraud's agar pH=5.9, 27° C., 1 week
Description: as §1, §2, §3, §4

Structure (SMILES) | MIC [1] [µg/mL] | MIC (T. violaceum TIMM1264) [µg/mL] | MIC [2] [µg/mL] | MIC [3] [µg/mL] | MIC (M. gypseum IF08231) [µg/mL] | MIC (T. rubrum IF05808) [µg/mL] | MIC (M. canis TIMM0760) [µg/mL] | MIC [4] [µg/mL] | MIC (T. rubrum IF09185) [µg/mL]
C=C(CN(C)Cc1ccc(C(C)(C)C)cc1)c1ccccc1C [Compound AD-028, N-(4-tert-butylbenzyl)-N-methyl-[2-(2-methylphenyl)-2-propenyl]amine] | 6.25 (≈ 20.3 µM) | 6.25 (≈ 20.3 µM) | 6.25 (≈ 20.3 µM) | 6.25 (≈ 20.3 µM) | 6.25 (≈ 20.3 µM) | 3.12 (≈ 10.1 µM) | 3.12 (≈ 10.1 µM) | 3.12 (≈ 10.1 µM) | 3.12 (≈ 10.1 µM)
C=C(CN(C)Cc1ccc(C(C)(C)C)cc1)c1ccccc1[N+](=O)[O-] [Compound AD-033, N-(4-tert-butylbenzyl)-N-methyl-[2-(2-nitrophenyl)-2-propenyl]amine] | 6.25 (≈ 18.5 µM) | 12.5 (≈ 36.9 µM) | 12.5 (≈ 36.9 µM) | 12.5 (≈ 36.9 µM) | 12.5 (≈ 36.9 µM) | 3.12 (≈ 9.22 µM) | 6.25 (≈ 18.5 µM) | 6.25 (≈ 18.5 µM) | 3.12 (≈ 9.22 µM)
C=C(CN(C)Cc1ccc(C(C)(C)C)cc1)c1cccc([N+](=O)[O-])c1 [Compound AD-037, N-(4-tert-butylbenzyl)-N-methyl-[2-(3-nitrophenyl)-2-propenyl]amine] | 1.56 (≈ 4.61 µM) | 3.12 (≈ 9.22 µM) | 3.12 (≈ 9.22 µM) | 1.56 (≈ 4.61 µM) | 3.12 (≈ 9.22 µM) | 0.78 (≈ 2.3 µM) | 0.78 (≈ 2.3 µM) | 1.56 (≈ 4.61 µM) | 0.78 (≈ 2.3 µM)
C=C(CN(C)Cc1ccc(C(C)(C)C)cc1)c1ccc(C)c(C)c1 [Compound AD-043, N-(4-tert-butylbenzyl)-N-methyl-[2-(3,4-dimethylphenyl)-2-propenyl]amine] | 1.56 (≈ 4.85 µM) | 1.56 (≈ 4.85 µM) | 1.56 (≈ 4.85 µM) | 1.56 (≈ 4.85 µM) | 1.56 (≈ 4.85 µM) | 0.2 (≈ 0.622 µM) | 0.78 (≈ 2.43 µM) | 1.56 (≈ 4.85 µM) | 0.78 (≈ 2.43 µM)
C=C(CN(C)Cc1ccc(C(C)(C)C)cc1)c1ccc(C)cc1C [Compound AD-046, N-(4-tert-butylbenzyl)-N-methyl-[2-(2,4-dimethylphenyl)-2-propenyl]amine] | 6.25 (≈ 19.4 µM) | 12.5 (≈ 38.9 µM) | 12.5 (≈ 38.9 µM) | 12.5 (≈ 38.9 µM) | 12.5 (≈ 38.9 µM) | 1.56 (≈ 4.85 µM) | 6.25 (≈ 19.4 µM) | 6.25 (≈ 19.4 µM) | 3.12 (≈ 9.7 µM)
C=C(CN(C)Cc1ccc(C(C)(C)C)cc1)c1cccc(C#N)c1 [Compound AD-052, 3-[1-{N-(4-tert-butylbenzyl)-N-methylamino}methyl]vinylbenzonitrile] | 0.39 (≈ 1.22 µM) | 1.56 (≈ 4.9 µM) | 0.78 (≈ 2.45 µM) | 0.78 (≈ 2.45 µM) | 0.39 (≈ 1.22 µM) | 0.39 (≈ 1.22 µM) | 0.39 (≈ 1.22 µM) | 0.78 (≈ 2.45 µM) | 0.39 (≈ 1.22 µM)
CN(CC(=O)c1ccccc1O)Cc1ccc(C(C)(C)C)cc1 [Compound AD-057, 2-[N-(4-tert-butylbenzyl)-N-methylamino]-2'-hydroxyacetophenone] | 12.5 (≈ 40.1 µM) | 6.25 (≈ 20.1 µM) | 12.5 (≈ 40.1 µM) | 12.5 (≈ 40.1 µM) | 12.5 (≈ 40.1 µM) | 3.12 (≈ 10 µM) | 6.25 (≈ 20.1 µM) | 12.5 (≈ 40.1 µM) | 6.25 (≈ 20.1 µM)
C=C(CN(C)C/C=C/C#CC(C)(C)C)c1ccccc1 [Compound PR-1258, Trans-N-(6,6-dimethyl-2-hepten-4-ynyl)-N-methyl-2-phenyl-2-propenylamine] | 1.56 (≈ 5.83 µM) | 1.56 (≈ 5.83 µM) | 0.78 (≈ 2.92 µM) | 0.78 (≈ 2.92 µM) | 1.56 (≈ 5.83 µM) | 0.39 (≈ 1.46 µM) | 0.39 (≈ 1.46 µM) | 0.78 (≈ 2.92 µM) | 0.78 (≈ 2.92 µM)
C=C(CN(C)C/C=C/C#CC(C)(C)C)c1ccc(F)cc1 [Compound PR-1430, trans-N-(6,6-dimethyl-2-hepten-4-ynyl)-N-methyl-[2-(4-fluorophenyl)-2-propenyl]amine] | 0.39 (≈ 1.37 µM) | 0.39 (≈ 1.37 µM) | 0.39 (≈ 1.37 µM) | 0.39 (≈ 1.37 µM) | 6.25 (≈ 21.9 µM) | 0.39 (≈ 1.37 µM) | 0.39 (≈ 1.37 µM) | 0.39 (≈ 1.37 µM) | 0.39 (≈ 1.37 µM)
C=C(CN(C)C/C=C/C#CC(C)(C)C)c1cccc(Br)c1 [Compound PR-1484, Trans-N-(6,6-dimethyl-2-hepten-4-ynyl)-N-methyl-[2-(3-bromophenyl)-2-propenyl]amine] | 0.1 (≈ 0.289 µM) | 0.1 (≈ 0.289 µM) | 0.39 (≈ 1.13 µM) | 0.1 (≈ 0.289 µM) | 0.39 (≈ 1.13 µM) | 0.1 (≈ 0.289 µM) | 0.1 (≈ 0.289 µM) | 0.2 (≈ 0.578 µM) | 0.1 (≈ 0.289 µM)
C=C(CN(C)C/C=C/C#CC(C)(C)C)c1ccccc1F [Compound PR-1491, Trans-N-(6,6-dimethyl-2-hepten-4-ynyl)-N-methyl-[2-(2-fluorophenyl)-2-propenyl]amine] | 0.39 (≈ 1.37 µM) | 0.39 (≈ 1.37 µM) | 0.39 (≈ 1.37 µM) | 0.39 (≈ 1.37 µM) | 6.25 (≈ 21.9 µM) | 0.1 (≈ 0.35 µM) | 0.1 (≈ 0.35 µM) | 0.39 (≈ 1.37 µM) | 0.39 (≈ 1.37 µM)
C=C(CN(C)C/C=C/C#CC(C)(C)C)c1ccccc1Br [Compound PR-1505, trans-N-(6,6-dimethyl-2-hepten-4-ynyl)-N-methyl-[2-(2-bromophenyl)-2-propenyl]amine] | 1.56 (≈ 4.5 µM) | 0.39 (≈ 1.13 µM) | 1.56 (≈ 4.5 µM) | 1.56 (≈ 4.5 µM) | 6.25 (≈ 18 µM) | 0.39 (≈ 1.13 µM) | 0.39 (≈ 1.13 µM) | 1.56 (≈ 4.5 µM) | 1.56 (≈ 4.5 µM)
C=C(CN(C)C/C=C/C#CC(C)(C)C)c1ccccc1C [Compound PR-1533, trans-N-(6,6-dimethyl-2-hepten-4-ynyl)-N-methyl-[2-(o-tolyl)-2-propenyl]amine] | 0.39 (≈ 1.39 µM) | 0.39 (≈ 1.39 µM) | 0.39 (≈ 1.39 µM) | 0.39 (≈ 1.39 µM) | 6.25 (≈ 22.2 µM) | 0.39 (≈ 1.39 µM) | 0.39 (≈ 1.39 µM) | 1.56 (≈ 5.54 µM) | 0.39 (≈ 1.39 µM)
C=C(CN(C)C/C=C/C#CC(C)(C)C)c1cccc(C)c1 [Compound PR-1540, trans-N-(6,6-dimethyl-2-hepten-4-ynyl)-N-methyl-[2-(m-tolyl)-2-propenyl]amine] | 0.1 (≈ 0.355 µM) | 0.1 (≈ 0.355 µM) | 0.1 (≈ 0.355 µM) | 0.39 (≈ 1.39 µM) | 1.56 (≈ 5.54 µM) | 0.1 (≈ 0.355 µM) | 0.1 (≈ 0.355 µM) | 0.39 (≈ 1.39 µM) | 0.1 (≈ 0.355 µM)
C=C(CN(C)C/C=C/C#CC(C)(C)C)c1ccc(O)cc1 [Compound PR-1606, Trans-N-(6,6-dimethyl-2-hepten-4-ynyl)-N-methyl-[2-(4-hydroxyphenyl)-2-propenyl]amine] | 25 (≈ 88.2 µM) | 50 (≈ 176 µM) | 50 (≈ 176 µM) | 50 (≈ 176 µM) | 25 (≈ 88.2 µM) | 25 (≈ 88.2 µM) | 25 (≈ 88.2 µM) | 50 (≈ 176 µM) | 50 (≈ 176 µM)
CN(C/C=C/C#CC(C)(C)C)CC(=O)c1ccccc1O [Compound PR-1620, Trans-2-[N-(6,6-dimethyl-2-hepten-4-ynyl)-N-methylamino]-2'-hydroxyacetophenone] | 12.5 (≈ 43.8 µM) | 12.5 (≈ 43.8 µM) | 12.5 (≈ 43.8 µM) | 12.5 (≈ 43.8 µM) | 25 (≈ 87.6 µM) | 6.25 (≈ 21.9 µM) | 12.5 (≈ 43.8 µM) | 6.25 (≈ 21.9 µM) | 12.5 (≈ 43.8 µM)
C=C(CN(C)C/C=C/C#CC(C)(C)C)c1ccccc1N [Compound PR-1672, Trans-N-(6,6-dimethyl-2-hepten-4-ynyl)-N-methyl-[2-(2-aminophenyl)-2-propenyl]amine] | 3.12 (≈ 11 µM) | 3.12 (≈ 11 µM) | 3.12 (≈ 11 µM) | 3.12 (≈ 11 µM) | 3.12 (≈ 11 µM) | 0.78 (≈ 2.76 µM) | 1.56 (≈ 5.52 µM) | 1.56 (≈ 5.52 µM) | 1.56 (≈ 5.52 µM)
C=C(CN(C)C/C=C/C#CC(C)(C)C)c1cc(F)cc(F)c1 [Compound PR-2159, Trans-N-(6,6-dimethyl-2-hepten-4-ynyl)-N-methyl-[2-(3,5-difluorophenyl)-2-propenyl]amine] | 0.2 (≈ 0.659 µM) | 0.2 (≈ 0.659 µM) | 0.1 (≈ 0.33 µM) | 0.2 (≈ 0.659 µM) | 0.2 (≈ 0.659 µM) | 0.1 (≈ 0.33 µM) | 0.05 (≈ 0.165 µM) | 0.2 (≈ 0.659 µM) | 0.1 (≈ 0.33 µM)
